{"source": "patent US20250002843A1", "about": "“DERIVATION OF NAÏVE BOVINE EMBRYONIC STEM CELLS” (The Semex Alliance, priority 2021, published 2025)", "molecules": {"B1": {"name": "bovine IL-6: bovine IL-6, a member of the LIF superfamily (protein, UniProt P26892 30-208, looked up)", "Interleukin-6": "GPLGEDFKNDTTPGRLLLTTPEKTEALIKRMVDKISAMRKEICEKNDECESSKETLAENKLNLPKMEEKDGCFQSGFNQAICLIRTTAGLLEYQIYLDYLQNEYEGNQENVRDLRKNIRTLIQILKQKIADLITTPATNTDLLEKMQSSNEWVKNAKIILILRNLENFLQFSLRAIRMK"}}, "tested_on": "ZP-free bovine embryo", "assay": "Bovine embryo attachment and outgrowth derivation (attachment, TE growth, ICM growth) in culture media", "type": "cell-based", "details": "for effect on derivation efficiency on substitution in t2iLGöY media: bovine IL-6 10 ng/ml for human LIF, CGP77675 2 uM for PD0325901", "experimental": "The protocol for coating was as follows: • 1. 4 drops of 50 μL of coating solution: 0.1% gelatin or different concentrations of EHS-ECM, provided as a 100× concentrated solution, were applied onto Nunc surface 35 mm^2 cell culture dish (see FIG. 1). • 2. Coated substrates were incubated in a humidified 5% CO2 incubator at 38.5° C. for 1 hour. • 3. After incubation, excess coating solution was removed, 50 uL of cell culture media was applied to the coated area, covered with 4 mL of mineral oil, and 50 ul of additional media was added into each drop. • 4. Media was allowed to equilibrate in a humidified 5% O2, 5% CO2 incubator at 38.5° C. for 2 hours. • 5. After ZP removal and adaptation of embryos, 1 embryo was placed into 1 micro culture drop to start outgrowth derivation. • 6. First attachment rate was determined at 48 hours of outgrowth culture and first media change was done right after first attachment determination. • 7. Attachment rate and outgrowth rate were evaluated every day and media were changed right after daily evaluation.\nThe protocol for generating LbL ECM coated substrate was as follows: • 1. 40 ul of 0.1% Gelatin type A (diluted with DMEM/F12 basal medium) was applied to the surface of a Nunc 35 mm^2 cell culture dish to make small drops. • 2. The dish was incubated in a humidified 5% CO2 incubator at 38.5° C. for 1 hour. • 3. After incubation, the gelatin solution was removed and 50 ul of DPBS with Ca^2+ and Mg^2+ was added to wash excess gelatin from drops, followed by removal using aspiration. The washing step was repeated 2 times more. • 4. 50 ul of 1×EHS-ECM was applied to the gelatin coated area and incubated in a humidified 5% CO2 incubator at 38.5° C. for 1 hour. • 5. After incubation, EHS-ECM solution was removed, and 50 ul of media was applied; drops were covered with 4 ml of mineral oil, and 50 ul of additional media was added into each drop. • 6. The media was allowed to equilibrate in 5% CO2 incubator for 2 hours.\n• 1. Thawing media and outgrowth media was mixed at a 1:1 ratio. • 2. After post-thaw recovery, embryos were washed twice in adaptation media (1:1 ratio of thawing media (e.g. embryo handling media and outgrowth media (e.g. DMEM))) before being put in the adaptation drop in the Dish #1 (FIG. 10). • 4. After 1 hour of adaptation, embryos were then washed four times by transferring to washing drops (outgrowth media) in the Dish #2. • 5. Embryos were then moved to the outgrowth media (DMEM) for plating. • 6. Adapted embryos were then plated into LbL coated micro drop.\nFBS (10091, Gibco™), Knock-out Serum Replacement (10828-10, Gibco™), Serum Replacement (S0638, Sigma), B27 supplement (17504-044, Gibco™), and N2 supplement (17502-048, Gibco™) were used for this test. Traditional mouse 2iL media (DMEM/F12+1% MEM non-essential amino acid+2 mM Glutamax+100 µM beta-mercaptoethanol+100 IU penicillin/streptomycin+growth factors/inhibitors including 3 µM CHIR99021, 1 μM PD0325901 and 100 ng/ml LIF) was used as a basal medium for the serum tests of 10% FBS and 20% KOSR, and 1×-, 2×-SR groups. t2iLGöY media (1:1 mixture of DMEM/F12 and neurobasal medium+1% MEM non-essential amino acid+2 mM Glutamax+50 μg/ml BSA, fraction V+100 μM beta-mercaptoethanol+100 IU penicillin/streptomycin+growth factors/inhibitors including 1 μM CHIR99021, 1 μM PD0325901, 10 μM Y27632, 2.5 μM Gö6983 and 10 ng/ml LIF) was used for the testing of N2B27 group. […]", "data": [{"molecule": "COc1cccc(-c2cn(-c3ccc(CCN4CCC(O)CC4)cc3)c3ncnc(N)c23)c1", "note": "[CGP77675]", "values": [{"measurement": "effect on derivation efficiency on substitution in t2iLGöY media", "result": "negative effect"}]}, {"molecule": "COc1ccc2c(c1)c(C1=C(c3c[nH]c4ccccc34)C(=O)NC1=O)cn2CCCN(C)C", "note": "[Gö6983]", "values": [{"measurement": "derivation efficiency on addition in t2iLGoY", "setting": "side-by-side with 2i, 2iLFk and NHSM media", "result": "improved"}]}, {"molecule": "O=C(NOC[C@H](O)CO)c1ccc(F)c(F)c1Nc1ccc(I)cc1F", "note": "[PD0325901]", "values": [{"measurement": "derivation efficiency when withdrawn from media", "setting": "MEK inhibitor withdrawn, embryo cavity formation", "result": "decreased"}]}, {"molecule": "insulin", "values": [{"measurement": "hypoblast formation during outgrowth culture", "setting": "addition of 20 μg/ml to the medium", "result": "not observed"}]}, {"molecule": "B1", "values": [{"measurement": "effect on derivation efficiency on substitution in t2iLGöY media", "result": "negative effect"}]}]}
